The target in this assay is ex-LdtMt2 (LdtMt2; MT2594; product of gene Rv2518c) (Mycobacterium tuberculosis, UniProt O53223). Nature of the assay: isothermal titration calorimetry, single-site model. The assay is classed as binding. (Isothermal titration calorimetry measures the heat released or taken up as one component is titrated into another.)

For the molecule `C[C@@H](O)[C@H]1C(=O)N2C(C(=O)O)=C(SCCN=CN)C[C@H]12` [imipenem], the Kd – broadly, the free concentration of one partner at which half of the binding sites on the other are occupied at equilibrium, for simple one-to-one binding – is 54.8 ± 8.8 nM.

The record behind these values is article PMC3573878 (Structure (London, England : 1993), 2012).
